{"source": "ChEMBL document CHEMBL1201862", "about": "“PubChem BioAssay data set” (2004)", "key": {"[1]": {"target": "Sphingosine 1-phosphate receptor 2 (Homo sapiens, UniProt O95136)", "sequence (O95136 whole entry)": "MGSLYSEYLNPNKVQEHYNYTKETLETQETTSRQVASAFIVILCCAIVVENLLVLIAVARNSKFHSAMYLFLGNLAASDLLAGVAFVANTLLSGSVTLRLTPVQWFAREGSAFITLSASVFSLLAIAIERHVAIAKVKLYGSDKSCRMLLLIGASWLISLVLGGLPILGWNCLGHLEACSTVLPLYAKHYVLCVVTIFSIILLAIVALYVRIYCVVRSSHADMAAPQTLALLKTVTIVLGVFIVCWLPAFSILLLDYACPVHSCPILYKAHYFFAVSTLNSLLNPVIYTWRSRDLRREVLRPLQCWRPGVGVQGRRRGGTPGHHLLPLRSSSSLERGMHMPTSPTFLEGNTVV", "assay": "Dose Response Cell Based Assay for Agonists of the S1P2 Receptor of Purchased Analogues. [Related pubchem assays: 729, 843, 854, 736 ]", "assay_type": "functional"}, "[2]": {"target": "Ubiquitin carboxyl-terminal hydrolase BAP1 (Homo sapiens, UniProt Q92560)", "sequence (Q92560 whole entry)": "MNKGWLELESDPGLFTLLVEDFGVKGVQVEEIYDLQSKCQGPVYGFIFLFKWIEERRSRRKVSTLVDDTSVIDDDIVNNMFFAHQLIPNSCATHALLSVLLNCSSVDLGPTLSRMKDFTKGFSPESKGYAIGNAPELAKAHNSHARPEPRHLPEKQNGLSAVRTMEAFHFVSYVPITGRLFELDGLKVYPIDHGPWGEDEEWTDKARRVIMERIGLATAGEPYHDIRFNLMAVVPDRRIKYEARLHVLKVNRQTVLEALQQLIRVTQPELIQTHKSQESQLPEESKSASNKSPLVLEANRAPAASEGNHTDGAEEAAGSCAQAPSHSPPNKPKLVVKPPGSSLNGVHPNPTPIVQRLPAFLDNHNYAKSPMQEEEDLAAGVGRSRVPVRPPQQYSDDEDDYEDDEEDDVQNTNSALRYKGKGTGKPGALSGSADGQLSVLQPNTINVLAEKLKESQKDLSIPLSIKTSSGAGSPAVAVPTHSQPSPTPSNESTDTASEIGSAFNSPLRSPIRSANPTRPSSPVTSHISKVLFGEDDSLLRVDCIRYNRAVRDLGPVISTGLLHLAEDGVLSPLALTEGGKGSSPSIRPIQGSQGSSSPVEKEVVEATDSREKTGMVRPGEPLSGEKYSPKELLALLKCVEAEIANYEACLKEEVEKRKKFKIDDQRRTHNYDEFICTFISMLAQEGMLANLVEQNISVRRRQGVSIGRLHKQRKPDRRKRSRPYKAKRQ", "assay": "BAP1 deubiquitinase inhibitors, dose response, biochemical (AID 714)", "assay_type": "functional"}, "Bcl-2-related protein A1 [3]": {"target": "T1, Bcl-2-related protein A1 (Mus musculus, UniProt Q07440)", "T1 sequence (Q07440 whole entry)": "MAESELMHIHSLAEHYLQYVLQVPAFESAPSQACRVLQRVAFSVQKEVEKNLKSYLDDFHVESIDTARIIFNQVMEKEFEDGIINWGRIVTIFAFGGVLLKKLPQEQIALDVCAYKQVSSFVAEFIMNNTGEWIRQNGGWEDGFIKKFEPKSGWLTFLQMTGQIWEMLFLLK", "assay": "Bfl-1 inhibitors blocking BH3 peptide binding, confirmation, biochemical, TR-FRET, mouse Bfl-1 (AID 621);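 further: TR-FRET binding of GST-Bfl-1 to FITC-labelled Bid peptide via terbium antibody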"}, "Bcl-2-related protein A1 [4]": {"target": "T1, Bcl-2-related protein A1", "assay": "Bfl-1 inhibitors, primary screen, biochemical, fluorescence polarization, FITC-Bid, mouse (AID 432)"}, "NADPH oxidase 1": {"target": "T2, NADPH oxidase 1 (Homo sapiens, UniProt Q9Y5S8)", "T2 sequence (Q9Y5S8 whole entry)": "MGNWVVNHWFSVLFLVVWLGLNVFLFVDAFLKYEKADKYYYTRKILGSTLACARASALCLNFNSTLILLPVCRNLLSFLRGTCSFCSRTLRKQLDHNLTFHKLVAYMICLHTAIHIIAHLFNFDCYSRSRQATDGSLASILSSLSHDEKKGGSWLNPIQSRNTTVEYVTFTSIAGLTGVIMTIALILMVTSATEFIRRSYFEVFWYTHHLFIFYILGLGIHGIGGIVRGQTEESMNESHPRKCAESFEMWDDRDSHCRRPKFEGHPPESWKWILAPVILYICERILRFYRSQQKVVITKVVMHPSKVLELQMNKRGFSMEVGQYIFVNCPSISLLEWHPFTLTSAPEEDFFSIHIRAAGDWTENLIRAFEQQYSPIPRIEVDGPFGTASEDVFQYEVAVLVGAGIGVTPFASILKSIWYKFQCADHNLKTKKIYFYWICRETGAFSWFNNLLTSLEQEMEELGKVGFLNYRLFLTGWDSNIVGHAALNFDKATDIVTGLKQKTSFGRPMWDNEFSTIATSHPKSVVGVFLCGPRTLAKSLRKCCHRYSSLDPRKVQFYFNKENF", "assay": "Late-stage luminescence-based cell-based dose response assay to identify inhibitors of NADPH oxidase 1 (NOX1): Purchased analogs 2.", "assay_type": "functional"}, "INS1": {"system": "INS1", "assay": "beta cell apoptosis inhibitors, cytokine rescue, dose response, luminescence, retest (AID 449756);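 further: cell death triggered by IL-1 beta plus TNF-alpha plus IFN-gamma mixture; protective hits raise ATP signal compared with cytokine alone wells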", "assay_type": "functional, cell-based", "settings": "Rattus norvegicus"}, "Galanin receptor type 2": {"target": "Galanin receptor type 2 (Homo sapiens, UniProt O43603)", "sequence (O43603 whole entry)": "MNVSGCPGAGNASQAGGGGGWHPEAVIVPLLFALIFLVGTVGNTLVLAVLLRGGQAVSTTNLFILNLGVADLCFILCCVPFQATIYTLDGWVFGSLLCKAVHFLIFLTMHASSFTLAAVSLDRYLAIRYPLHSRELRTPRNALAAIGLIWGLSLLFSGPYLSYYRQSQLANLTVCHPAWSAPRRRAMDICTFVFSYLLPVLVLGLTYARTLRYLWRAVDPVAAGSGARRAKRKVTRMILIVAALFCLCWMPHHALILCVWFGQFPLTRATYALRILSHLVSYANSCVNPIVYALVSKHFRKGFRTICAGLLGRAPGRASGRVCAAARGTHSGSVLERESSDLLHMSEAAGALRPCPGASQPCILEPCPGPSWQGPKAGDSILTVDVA", "assay": "Dose Response cell-based high-throughput screening assay to identify agonists of galanin receptor 2 (GALR2). [Related pubchem assays: 864 ]", "assay_type": "functional"}, "cells [5]": {"assay": "cells", "settings": "HEK293"}, "Streptococcus": {"system": "Streptococcus", "assay": "Group A Streptococcus viability loss, dose response, counter-screen for streptokinase expression inhibitor project, luminescence, BacTiterGlo (AID 1915);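 further: potency for reduction of bacterial viability or growth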", "assay_type": "functional, organism-based"}, "cells [6]": {"assay": "cells", "settings": "A549"}, "[7]": {"system": "Streptococcus sp. 'group A'", "assay": "growth inhibition of control SK(-) GAS strain, dose response, counter-screen for streptokinase expression inhibitor project, luminescence, kanamycin, BacTiterGlo, confirmation (AID 1900)", "assay_type": "functional, organism-based"}, "Nonstructural protein 1": {"target": "Nonstructural protein 1 (Influenza A virus, UniProt Q194T2)", "sequence (Q194T2 whole entry)": "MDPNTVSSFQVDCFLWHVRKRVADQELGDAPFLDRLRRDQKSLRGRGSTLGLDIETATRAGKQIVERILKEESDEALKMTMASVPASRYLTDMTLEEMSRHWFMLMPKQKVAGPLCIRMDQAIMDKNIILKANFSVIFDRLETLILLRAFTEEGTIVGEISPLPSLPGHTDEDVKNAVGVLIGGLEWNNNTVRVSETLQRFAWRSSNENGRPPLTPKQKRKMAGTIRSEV", "assay_type": "functional, Influenza A virus (A/California/07/2009(H1N1))"}, "[8]": {"assay": "human group III sPLA2 inhibitors, dose response, biochemical, QFRET, IC50 (AID 743457);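 further: green fluorescence rise as the enzyme cleaves BODIPY PC-A2 in liposomes; potency for inhibition of the enzyme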"}, "[9]": {"assay": "HepG2 cell cytotoxicity, dose response, cytotoxicity control, ATP luminescence, cherry-pick, set 6 (AID 1053125)", "assay_type": "functional, cell-based"}, "Vero [10]": {"system": "Vero", "assay": "cytotoxicity of synthesized analogs in Vero 76, SAR follow-up, cytotoxicity control for West Nile virus antiviral project, Vero 76 cells (AID 2414)", "assay_type": "functional", "settings": "Chlorocebus sabaeus"}, "Vero [11]": {"system": "Vero", "assay": "cytotoxicity of synthesized analogs in Vero cells, SAR follow-up, cytotoxicity control for West Nile virus antiviral project, cell-based, set II (AID 2402)", "assay_type": "functional", "settings": "Chlorocebus sabaeus"}, "Genome polyprotein": {"target": "Genome polyprotein (Hepatitis C virus, UniProt Q2Q167)", "sequence (Q2Q167 whole entry)": "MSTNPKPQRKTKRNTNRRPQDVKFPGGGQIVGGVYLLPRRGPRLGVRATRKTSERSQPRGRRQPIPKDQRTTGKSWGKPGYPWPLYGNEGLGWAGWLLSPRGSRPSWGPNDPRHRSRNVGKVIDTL", "assay": "HCV core protein dimerization inhibitors, dose response, biochemical, TR-FRET (AID 2159);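 further: blocks dimerization of HCV core protein measured by TR-FRET between tagged core106 pairs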", "parameters": "species or system Hepacivirus hominis"}, "[12]": {"target": "Diphosphomevalonate decarboxylase (Streptococcus pneumoniae serotype 2 (strain D39 / NCTC 7466), UniProt Q9FD53)", "sequence (Q9FD53 whole entry)": "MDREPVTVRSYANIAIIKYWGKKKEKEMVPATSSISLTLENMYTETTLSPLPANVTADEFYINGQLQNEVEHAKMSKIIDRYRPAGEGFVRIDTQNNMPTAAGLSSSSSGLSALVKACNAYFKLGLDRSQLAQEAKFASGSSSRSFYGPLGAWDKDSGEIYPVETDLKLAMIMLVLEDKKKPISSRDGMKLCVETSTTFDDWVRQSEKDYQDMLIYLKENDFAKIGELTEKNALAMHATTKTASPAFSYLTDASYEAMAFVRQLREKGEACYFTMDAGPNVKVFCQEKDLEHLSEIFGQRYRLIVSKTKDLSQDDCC", "assay": "S. pneumoniae DPM-DC inhibition retest, confirmation, biochemical, cuvette format, coupled NADH fluorescence (AID 1028)", "assay_type": "functional"}}, "note": "Activity calls are given as the source filed them."}
{"molecule": "Cc1cc(C(=O)Cn2cc(C(F)(F)F)ccc2=O)c(C)n1Cc1ccccc1", "values": [{"measurement": "EC50", "setting": "[1]", "value": "0.723 µM (active)"}]}
{"molecule": "COc1ccc2nc(NC(=O)CCc3nc(-c4ccccc4F)no3)sc2c1", "values": [{"measurement": "IC50", "setting": "[2]", "value": "36.6 µM (not active)"}]}
{"molecule": "CN(C)c1ccc(-c2nn3c(-c4ccc(Cl)cc4Cl)nnc3s2)cc1", "values": [{"measurement": "IC50", "setting": "Bcl-2-related protein A1 [3]", "value": "> 100 µM (not active)"}, {"measurement": "IC50", "setting": "Bcl-2-related protein A1 [4]", "value": "> 100 µM (not active)"}]}
{"molecule": "O=C(Nc1ccc(Oc2ccc(Cl)cc2)cc1)Nc1ccc([N+](=O)[O-])cc1", "values": [{"measurement": "IC50", "setting": "NADPH oxidase 1", "value": "> 17 µM (not active)"}]}
{"molecule": "Cc1cccc2sc(NNC(=O)c3ccc(S(=O)(=O)N4CCCC(C)C4)cc3)nc12", "note": "(stereo not drawn)", "values": [{"measurement": "AC50", "setting": "INS1", "value": "1.12 µM (active)"}, {"measurement": "EC50", "setting": "Galanin receptor type 2", "value": "> 55.7 µM (not active)"}, {"measurement": "AC50", "setting": "cells [5]", "value": "4.7 µM (active)"}, {"measurement": "EC50", "setting": "Streptococcus", "value": "8.56 µM (active)"}, {"measurement": "AC50", "setting": "cells [6]", "value": "8.96 µM (active)"}, {"measurement": "EC50", "setting": "[7]", "value": "0.493 µM (active)"}, {"measurement": "IC50", "setting": "Nonstructural protein 1", "value": "> 100 µM (active)"}, {"measurement": "IC50", "setting": "[8]", "value": "21.3 µM (inactive)"}, {"measurement": "AC50", "setting": "[9]", "value": "4.56 µM (active)"}]}
{"molecule": "OC1c2cc(Br)ccc2N=C2CCCCCN21", "note": "(stereo not drawn)", "values": [{"measurement": "CC50", "setting": "Vero [10]", "value": "61 µM (active)"}, {"measurement": "CC50", "setting": "Vero [11]", "value": "37.6 µM (active)"}]}
{"molecule": "Sc1nc(Cc2ccccc2)nc2ccccc12", "values": [{"measurement": "IC50", "setting": "Genome polyprotein", "value": "> 49.8 µM (not active)"}]}
{"molecule": "O=C(NCc1ccccc1)c1ccc(-n2sc3ccccc3c2=O)cc1", "values": [{"measurement": "IC50", "setting": "[12]", "value": "9.98 µM (active)"}]}
